Like-named read-outs stand apart in the source and are kept apart here. Some results are limits rather than exact numbers.

One may read the CC50 as the concentration at which the toxic effect on the cells reaches its halfway point.

Series [1] concerns CCRF-CEM. Kind of series: Muse Count & Viability Kit (flow cytometry). As to conditions: for CC50 / Emax: Homo sapiens. A general note: A flow cytometer gives signals particle by particle.
Experimental: Cell viability, cell death pattern, cell cycle and detection of PI3K activation were evaluated, and each analysis was performed using specific protocols of the Guava Muse Cell Analyzer.
In total, 20 µL of the cell solution was added to 380 µL of the reagent in 1 mL Eppendorf tubes and incubated for 5 min at room temperature in the dark. Samples from three independent experiments carried out in duplicate were read on the cytometer, followed by statistical analysis of the histograms on Prism6 to determine the CC50.
The subject of a further series is MOLT-4. Nature of the series: MTT cell viability assay. In kind it is cell-based, human. As to conditions: for CC50 / Emax: Homo sapiens; for CC50: 95% confidence interval in brackets; for Emax: read-out: Emax (maximum effect at maximum concentration used); for loss of cytotoxic potency at 48 h versus 72 h (MTT): MOLT-4. As to the method: (§1) For the evaluation of cellular cytotoxicity in cancer cell lines, the compounds were tested at concentrations ranging from 0.00003 μM to 150 μM. Immortalized cancer cells were selected: PC-3 (PTEN-mutated prostate adenocarcinoma), MCF-7 (PI3KCA-mutated breast carcinoma), K562 (P53-mutated chronic myeloid leukemia), CCRF-CEM (acute lymphoblastic leukemia with mutation in PTEN) and MOLT-4 (acute lymphoblastic leukemia with mutation in PI3KR1/PTEN). Peripheral blood mononuclear cells (PBMCs) were used to determine the cytotoxic selectivity index (SI). All immortalized cells were cultured in RPMI 1640 medium with 10% (v/v) FBS, streptomycin + penicillin, at 37 °C in a humidified incubator containing 5% CO2.
(§2) Cell viability was assessed by the MTT assay. The lines selected for this study were plated according to their respective densities, which ranged from 3 × 10^4 to 4 × 10^4 cells per well. Subsequently, they were treated with test compounds at different concentrations (0.00003 μM to 150 μM), gedatolisib and GSK-1059615.
(§3) After incubation, the plates are centrifuged at 440× g for 10 min. Then, 110 μL of the supernatant was withdrawn and each well received 10μL of the MTT solution. The plate was again incubated in an oven at 37 °C and 5% CO2 for 3 to 4 h. At the end of the incubation time, 100 μL of SDS-HCL detergent was added to solubilize the formazan crystals. The plate was shaken on an automatic overnight shaker and then read at a wavelength of 595 nm on the Molecular Devices Spectramax M5 plate reader.
(Tetrazolium dyes change colour on reduction, which living cells bring about.)

The test system of series [2] is CCRF-CEM. Nature of the series: MTT cell viability assay. It counts as cell-based, human. As to conditions: for CC50 / Emax: Homo sapiens; for CC50: 95% confidence interval in brackets; for Emax: read-out: Emax (maximum effect at maximum concentration used). How it is done: as §1, §2, §3
The test system of series [3] is PI3K activation and phosphorylation in CCRF-CEM cell line. Nature of the series: Muse PI3K Activation Dual Detection Kit. It counts as cell-based, human. How it is done: The methodology evaluates the activation and phosphorylation of PI3K and was performed from the labelling with the Guava Muse Luminex® PI3K Activation Dual Detection Kit (catalog n^o. MCH200103, Luminex) containing the anti-AKT/PKB-PECy5 antibody to measure total PI3K and the anti-phospho-AKT (Ser473)-Alexa Fluor® 555 antibody for measurement of activated PI3K.
Following 48 h of incubation in an incubator at 37 °C with 5% CO2, 1 mL of the cell solution was transferred to an Eppendorf tube, washed with PBS and centrifuged at 300× g for 5 min. The supernatant was discarded, and the pellet formed was resuspended in 500 µL of PBS. The samples were again centrifuged at 300× g for 5 min and the supernatant discarded.
Then the cell solutions were resuspended in 200 µL of assay buffer (Part no. CS202124), followed by the addition of 200 µL of fixation buffer (Part n^o. CS202122), ending up with a total volume of 400 µL per sample. The samples were incubated for 5 min on ice and centrifuged at 300× g for 5 min and the supernatant discarded.
Cells were permeabilized by adding 200 µL of ice-cold permeabilization buffer (Part n^o. CS202125) and then incubated on ice for 5 min and centrifuged at 300× g for 5 min, and the supernatant was discarded. The formed pellets were resuspended in 450 µL of assay buffer and vortexed at medium speed. In total, 90 µL of the solution from each sample was aliquoted into a new tube, and 10 µL of the cocktail solution containing Anti-phospho-Akt (Ser473), Alexa Fluor®555 and Anti-Akt/PKB, Pecy5 was added. The samples were homogenised and incubated for 30 min in the dark at room temperature.
After the incubation step, 100 µL of assay buffer was added per sample and centrifuged at 300× g for 5 min, and the supernatant was discarded. The formed pellets were resuspended in 200 µL of assay buffer and vortexed, and the samples were read in Guava Muse Luminex®. Data from three independent experiments performed in duplicate were analysed in the Prism6 program to determine the percentage of cells expressing activated and inactivated PI3K.

The test system of the next series is MCF7. Kind of series: Muse Count & Viability Kit (flow cytometry). On the set-up: Emax: dose or concentration left out as unconfirmed.
The subject of series [4] is MCF7 (breast cancer cells). Also noted: method as in Mallon and coworkers [15]. The settings on record: ref Mallon and coworkers [15]; cited from earlier work.
Series [5] relates to human peripheral blood mononuclear cells (PBMCs). Kind of series: PBMC viability assay (72 h MTT). It counts as cell-based. The settings on record: highest concentration studied 50 μM. How it is done:
Donor blood was collected and EDTA (ethylenediamine tetraacetic acid) was added to the sterile laminar flow in a 1:20 ratio. In a 15 mL falcon tube, 4.5 mL of Ficoll gradient was added, and then 9 mL of blood was added over the gradient in a 1:2 ratio. The tubes were centrifuged for 40 min at a speed of 750× g with an acceleration of 2 and a brake of 0. The ring of mononuclear cells formed was collected and added to a new tube.
Tubes with PBMCs were centrifuged in an incomplete RPMI medium for 10 min at 580× g with an acceleration of 8 and a brake of 9. The supernatant was discarded, and the cells were resuspended in 1 mL of RPMI medium supplemented with 20% […]. PBMCs were added to 96-well plates at a concentration of 1 × 10^5 cells per well. […]
After incubation, each well received 20 µL of MTT (5 mg/mL), followed by incubation for 4 h in the CO2 oven and centrifugation for 12 min at 1200× g. The supernatant from each well was taken, and 100 µL of isopropyl alcohol was added to solubilize the formazan crystals. The absorbance of the plates was measured at 570 nm in the Flex Station equipment.

Take `c1ccc(N2CCN(c3nc(N4CCCNCC4)nc(N4CCOCC4)n3)CC2)cc1` [5f, 4-(4-(1,4-Diazepan-1-yl)-6-(4-phenylpiperazin-1-yl)-1,3,5-triazin-2-yl)morpholine]: the “loss of potency in Muse Count & Viability Kit 72 h versus 72 h MTT” value with CCRF-CEM [1] was no more than 10 fold. In addition, the CC50 in the series with CCRF-CEM [1] (48 h) was 49 µM; in the series with CCRF-CEM [1] (72 h), 53.1 µM; in the series on MOLT-4 (MOLT-4, 48 h MTT), 36.5 µM; in the series on MOLT-4 (MOLT-4, 72 h MTT), 9.76 µM; in the series on CCRF-CEM [2] (48 h MTT) it was 11.1 µM; in the series with CCRF-CEM [2] (72 h MTT), 6.25 µM. The Emax was determined as 95% in the series on CCRF-CEM [1] (48 h); 96% with CCRF-CEM [1] (72 h); 80% with MOLT-4 (MOLT-4, 48 h MTT); 93% in the series with MOLT-4 (MOLT-4, 72 h MTT); 69% in the series with CCRF-CEM [2] (48 h MTT); 93% in the series on CCRF-CEM [2] (72 h MTT). Moreover, the “loss of cytotoxic potency at 48 h versus 72 h (MTT)” value with MOLT-4 was “less than 4 fold”; in the series with CCRF-CEM [2], “less than 2 fold”. For the same molecule, the “percentage of inactivated cells raised to” value in series [3] (concentration 10 times higher than its CC50) was 65%; in series [3] (tested at its CC50) it was 30%. Also, the cytotoxic activity entry in the series with MCF7 (MCF-7, Muse Count & Viability Kit, 72 h) was “inactive”.
With `CN(C)C1CCN(C(=O)c2ccc(NC(=O)Nc3ccc(-c4nc(N5CCOCC5)nc(N5CCOCC5)n4)cc3)cc2)CC1` [Gedatolisib, gedatolisib], the 50% cytotoxic concentration (CC50) in series [4] was 0.036 µM; in the series on CCRF-CEM [1] (48 h), 5.88 µM; in the series on CCRF-CEM [1] (72 h) it was 6.15 µM; with MOLT-4 (MOLT-4, 48 h MTT) it was 0.15 µM; with MOLT-4 (MOLT-4, 72 h MTT), 0.02 µM; with CCRF-CEM [2] (48 h MTT), 0.14 µM. The CC50 in the series with CCRF-CEM [2] (72 h MTT) is 0.03 µM. In addition, in the series with CCRF-CEM [1], the “loss of potency in Muse Count & Viability Kit 72 h versus 72 h MTT” value was 100 fold. Besides, the Emax with CCRF-CEM [1] (48 h) turned out to be 94%; with CCRF-CEM [1] (72 h), 94%; in the series on MOLT-4 (MOLT-4, 48 h MTT) it was 92%; in the series on MOLT-4 (MOLT-4, 72 h MTT) it was 93%; in the series on CCRF-CEM [2] (48 h MTT) it was 94%; with CCRF-CEM [2] (72 h MTT) it was 90%. Moreover, the Emax in the series on MCF7 (Homo sapiens, MCF7, 72 h, read-out: maximum effect (Emax)) worked out at 54%. Also, the “loss of cytotoxic potency at 48 h versus 72 h (MTT)” value in the series on MOLT-4 and with CCRF-CEM [2] was roughly 10 fold in each case. In series [5], the “Emax (reduction of viability of PBMCs)” value is 33%. For the same molecule, the “increase of the percentage of cells in the inactivated state” value in series [3] (at its CC50 (~6 μM) and 10 times lower (0.6 μM)) was “about 75%”.

Values taken from publication PMC9964390, “Design, Synthesis and Phenotypic Profiling of Simplified Gedatolisib Analogues” (Pharmaceuticals, 2023).
